Laboratory results: PMC8070033, “Bimetallic Iron–Palladium Catalyst System as a Lewis-Acid for the Synthesis of Novel Pharmacophores Based Indole Scaffold as Anticancer Agents” (Molecules, 2021)

Legend:
[1] = test system: HeLa cells (Cervical Cancer); assay: HeLa cells (Cervical Cancer) MTT assay; format: cell-based; conditions: ± SD from three independent experiments, NA: did not show anticancer activity at 30 µM
Protocol: (§1) Cytotoxicity against BJ Human fibroblast cells, and anti-cancer activity against PC3, HeLa and MCF-7 cancer cell lines were evaluated by following the procedure as described in the literature (Supplementary Materials). […]
(§2) of positive control – mean of O.D of negative control)*100).
(§3) The results (% inhibition) were processed by using Soft- Max Pro software (Molecular Device, USA).
(§4) Following concentrations were used to calculate (in case) of IC50:
(§5) Standard drug used in the MTT assay was doxorubicin. […]
C. HeLa cells (Cervical Cancer) assay
Cytotoxic activity of compounds was evaluated in 96-well flat-bottomed micro plates by using the standard MTT (3-[4, 5-dimethylthiazole-2-yl]-2, 5-diphenyl-tetrazolium bromide) colorimetric assay40.
For this purpose, HeLa cells (Cervical Cancer) were cultured in Minimum Essential Medium Eagle, supplemented with 5% of fetal bovine serum (FBS) , 100 IU/ml of penicillin and 100 µg/ml of streptomycin in 75 cm2 flasks, and kept in 5% CO2 incubator at 37 °C. Exponentially growing cells were harvested, counted with haemocytometer and diluted with a particular medium. Cell culture with the concentration of 6x10^4 cells/ml was prepared and introduced (100 µL/well) into 96 -well plates. After overnight incubation, medium was removed and 200 µL of fresh medium was added with different concentrations of compounds (1-30µM). After 48 hrs, 200 µL MTT (0.5 mg/ml) was added to each well and incubated further for 4 hrs. Subsequently, 100µL of DMSO was added to each well. The extent of MTT reduction to formazan within cells was calculated by measuring the absorbance at 570 nm, using a micro plate reader (Spectra Max plus, Molecular Devices, CA, USA). The cytotoxicity was recorded as concentration causing 50% growth inhibition (IC 50) for HeLa. The percent inhibition was calculated by using the following formula: […]
The results (% inhibition) were processed by using Soft - Max Pro software (Molecular Device, USA).
(§6) 1. Mosmann T. Rapid colorimetric assay for cellular growth and survival: application to proliferation and cytotoxicity assays. J Immunol Meth 1983, 65, 55–63. […]

[2] = test system: PC3 cells (Prostate Cancer); assay: PC3 cells (Prostate Cancer) MTT assay; format: cell-based; conditions: for IC50: MTT assay, 48 hrs, ± SD from three independent experiments, NA: did not show anticancer activity at 30 µM; for anticancer activity against PC3 prostate cancer cell line (in words): in comparison to doxorubicin
Protocol: (§7) Cytotoxicity against BJ Human fibroblast cells, and anti-cancer activity against PC3, HeLa and MCF-7 cancer cell lines were evaluated by following the procedure as described in the literature (Supplementary Materials).
The Biological Activity Assays Protocols
A. PC3 cells (Prostate Cancer) assay […]
For this purpose, PC3 cells (Prostate Cancer) were cultured in Dulbecco’s Modified Eagle Medium, supplemented with 5% of fetal bovine serum (FBS), 100 IU/ml of penicillin and 100 µg/ml of streptomycin in 75 cm2 flasks, and kept in 5% CO2 incubator at 37 °C. Exponentially growing cells were harvested, counted with haemocytometer and diluted with a particular medium. Cell culture with the concentration of 1x10^5 cells/ml was prepared and introduced (100 µL/well) into 96-well plates. After overnight incubation, medium was removed and 200 µL of fresh medium was added with different concentrations of compounds (1-30µM). After 48 hrs, 200 µL MTT (0.5 mg/ml) was added to each well and incubated further for 4 hrs. Subsequently, 100µL of DMSO was added to each well. The extent of MTT reduction to formazan within cells was calculated by measuring the absorbance at 570 nm, using a micro plate reader (Spectra Max plus, Molecular Devices, CA, USA). The cytotoxicity was recorded as concentration causing 50% growth inhibition (IC50) for PC3 cells. The percent inhibition was calculated by using the following formula: […]
as §2, §3
Standard drug used in the MTT assay was doxorubicin.
as §6

Human fibroblast BJ = assay: Cytotoxicity MTT assay, BJ human fibroblast cells; format: cell-based; conditions: 48 hrs, ± SD from three independent experiments, NA: did not show activity at 30 µM
Protocol: as §7
The Biological Activity Assays Protocols […]
(§8) of positive control – mean of O.D of negative control)*100). […]
as §5
B. Cytotoxicity assay Protocol (BJ Human fibroblast cells) […]
standard MTT (3-[4, 5-dimethylthiazole-2-yl]-2, 5-diphenyl-tetrazolium bromide) colorimetric assay (Price & J. McMillan1, 1990). For this purpose, BJ Human fibroblast cells were cultured in Dulbecco’s Modified Eagle Medium, supplemented with 10% of fetal bovine serum (FBS), 100 IU/ml of penicillin and 100 µg/ml of streptomycin and 2 mM L‐glutamine in 75 cm2 flasks, and kept in 5% CO2 incubator at 37 °C (Mannerström, Toimela, Sarkanen & Heinonen, 2017).
Exponentially growing cells were harvested, counted with haemocytometer and diluted with a particular medium. Cell culture with the concentration of 6x10^4cells/ml was prepared and introduced (100 µL/well) into 96-well plates. After overnight incubation, medium was removed and 200 µL of fresh medium was added with different concentrations of compounds (1 -30µM). After 48 hrs, 200 µL MTT (0.5 mg/ml) was added to each well and incubated further for 3 hrs.
Subsequently, 100µL of DMSO was added to each well. The extent of MTT reduction to formazan within cells was calculated by measuring the absorbance at 550 nm, using a micro plate reader (Spectra Max plus, Molecular Devices, CA, USA). The cytotoxicity was recorded as concentra tion causing 50% growth inhibition (IC50) for BJ cells. The percent inhibition was calculated by using the following […]
Following concentrations were used to calculate (in case) of IC50: […]

[3] = test system: MCF-7 breast cancer cell line; assay: MCF-7 breast cancer cell line MTT assay; format: cell-based; conditions: Homo sapiens, MCF7, 48 h, MTT assay, 48 hours; ± SD from three independent experiments; NA: did not show anticancer activity at 30 µM
Protocol: as §1, §8, §4, §5
D. MCF-7 breast cancer cell line assay.
MTT assay is a rapid and quantitative assay capable of measuring the surviving or proliferating cells.
It is based on the reduction of tetrazolium salt MTT (3-(4,5-dimethylthiazol-yl)-2,5-diphenyl tetrazolium bromide) by various dehydrogenase enzymes present in living cells. The tetrazolium ring present in MTT is cleaved in active mitochondria, which results in production of purple colored formazan crystals. These crystals are dissolved in DMSO and optical density of the color produced is taken by spectrophotometer (ELISA reader), with high efficiency and accuracy.
This assay was optimized and slightly modified according to our cell lines, i.e. MCF-7 breast cancer cell […]
1. MCF-7 cell line were cultured in Dulbecco’s modified Eagle medium (containing 10% fetal bovine serum) in 75 cc flasks, and kept in 5% CO 2 incubator at 37 °C.
2. Upon confluency, cells were harvested and plated in 96-well tissue culture treated flat bottom plates (seeding density 8,000 cells/well for MCF-7) in 100 µL medium.
3. Next day, compounds were added in triplicate at 50 µM concentration, and incubated for 48 hours. For natural extracts, the concentration was 50 µg/mL.
4. After 48 hrs incubation, the compounds were removed and 200 µL MTT at 0.5 mg/mL was added to each well and incubated at 37 °C for 3 hours.
5. Formazan crystals, formed by reduction of MTT were dissolved in 100 µL DMSO and absorbance was taken at 570 nm using micro-plate reader (Spectra Max plus, Molecular […]
6. The percent inhibition or decrease in viable cells was calculated by following formula:
% Inhibition = 100 - (mean of O.D. of test compound - mean of O.D. of negative control) / (mean of O.D. of positive control - mean of O.D. of negative control) x 100) […]
Twenty (20) mM stock concentration of compounds were diluted to working concentration of 50 µM, and then further serial dilutions were made in order to get less than 50% inhibition.
The IC50 was then calculated by using EZ-fit5 software.

Compound | IC50 ([1]; Homo sapiens, HeLa, 48 h) | melting point | IC50 ([2]; Homo sapiens, PC-3, 48 h) | IC50 (Human fibroblast BJ) | IC50 [2] | anticancer activity against PC3 prostate cancer cell line (in words) [2] | IC50 [3] | IC50 ([1]; 48 hrs) | IC50 ([1]; 48 hrs, listed as doxorubicin) | IC50 ([2]; listed as doxorubicin)
O=C(CC(c1cc2ccccc2o1)c1c[nH]c2ccccc12)c1ccc(Br)cc1 (stereo not shown) [Compound 3d, 3-(Benzofuran-2-yl)-1-(4-bromophenyl)-3-(1H-indol-3-yl)propan-1-one] | 12.6 ± 0.4 µM | 108 to 109 °C | 26.3 ± 0.8 µM | > 30 µM | – | – | – | – | – | –
O=C(CC(c1cc2ccccc2o1)c1c[nH]c2cc(F)ccc12)c1ccc(Br)cc1 (stereo not shown) [Compound 3e, 3-(Benzofuran-2-yl)-1-(4-bromophenyl)-3-(6-fluoro-1H-indol-3-yl)propan-1-one] | 13.6 ± 0.4 µM | 123 to 124 °C | 7.8 ± 0.4 µM | > 30 µM | – | – | – | – | – | –
O=C(CC(c1cc2ccccc2o1)c1c[nH]c2cc(F)ccc12)c1ccc(Cl)cc1 (stereo not shown) [Compound 3g, 3-(Benzofuran-2-yl)-1-(4-chlorophenyl)-3-(6-fluoro-1H-indol-3-yl)propan-1-one] | 14.7 ± 1.1 µM | 112 to 113 °C | 22 ± 1.3 µM | > 30 µM | 20 ± 1.3 µM | – | – | – | – | –
O=C(CC(c1cc2ccccc2s1)c1c[nH]c2ccccc12)c1ccc(Br)cc1 (stereo not shown) [Compound 3h, 3-(Benzo[b]thiophen-2-yl)-1-(4-bromophenyl)-3-(1H-indol-3-yl)propan-1-one] | – | 121 to 122 °C | 29.7 ± 0.4 µM | > 30 µM | – | – | – | – | – | –
O=C(CC(c1cc2ccccc2o1)c1c[nH]c2cc(F)ccc12)c1ccccc1[N+](=O)[O-] (stereo not shown) [Compound 3i, 3-(Benzofuran-2-yl)-3-(6-fluoro-1H-indol-3-yl)-1-(2-nitrophenyl)propan-1-one] | 15.2 ± 0.6 µM | 139 to 140 °C | – | – | – | complete loss of anticancer activity | – | – | – | –
O=C(CC(c1cc2ccccc2o1)c1c[nH]c2ccc(Br)cc12)c1ccccc1[N+](=O)[O-] (stereo not shown) [Compound 3j, 3-(Benzofuran-2-yl)-3-(5-bromo-1H-indol-3-yl)-1-(2-nitrophenyl)propan-1-one] | 17.3 ± 0.7 µM | 173 to 174 °C | 16 ± 0.1 µM | – | – | – | – | – | – | –
O=C(CC(c1cc2ccccc2o1)c1c[nH]c2ccccc12)c1ccccc1[N+](=O)[O-] (stereo not shown) [Compound 3k, 3-(Benzofuran-2-yl)-3-(1H-indol-3-yl)-1-(2-nitrophenyl)propan-1-one] | 14.9 ± 0.6 µM | 154 to 155 °C | – | – | – | – | – | – | – | –
COc1cccc(C(=O)CC(c2cc3ccccc3o2)c2c[nH]c3ccccc23)c1 (stereo not shown) [Compound 3l, 3-(Benzofuran-2-yl)-3-(1H-indol-3-yl)-1-(3-methoxyphenyl)propan-1-one] | 11.1 ± 0.6 µM | 162 to 163 °C | 16.3 ± 1.6 µM | > 30 µM | – | – | – | – | – | –
O=C(CC(c1cc2ccccc2s1)c1c[nH]c2ccccc12)c1ccccc1 (stereo not shown) [Compound 3n, 3-(Benzo[b]thiophen-2-yl)-3-(1H-indol-3-yl)-1-phenylpropan-1-one] | 12.4 ± 0.2 µM | 159 to 160 °C | 20.4 ± 0.4 µM | > 50 µM | – | – | – | – | – | –
O=C(CC(c1cc2ccccc2s1)c1c[nH]c2ccccc12)c1ccc(Cl)cc1 (stereo not shown) [Compound 3o, 3-(Benzo[b]thiophen-2-yl)-1-(4-chlorophenyl)-3-(1H-indol-3-yl)propan-1-one] | 13.8 ± 0.3 µM | 150 to 151 °C | 29.7 ± 0.1 µM | > 50 µM | – | – | – | – | – | –
O=C(CC(c1cc2ccccc2s1)c1c[nH]c2ccccc12)c1ccc(F)cc1 (stereo not shown) [Compound 3p, 3-(Benzo[b]thiophen-2-yl)-1-(4-fluorophenyl)-3-(1H-indol-3-yl)propan-1-one] | 12.7 ± 0.1 µM | – | 27.6 ± 0.1 µM | > 50 µM | – | – | – | – | – | –
O=C(CC(c1cc2ccccc2s1)c1c[nH]c2ccccc12)c1ccc(C(F)(F)F)cc1 (stereo not shown) [Compound 3q, 3-(Benzo[b]thiophen-2-yl)-3-(1H-indol-3-yl)-1-(4-(trifluoromethyl)phenyl)propan-1-one] | 18.8 ± 0.2 µM | 165 to 166 °C | 18 ± 0.3 µM | > 50 µM | – | – | – | – | – | –
COc1ccccc1C(=O)CC(c1cc2ccccc2o1)c1c[nH]c2ccccc12 (stereo not shown) [Compound 3r, 3-(Benzofuran-2-yl)-3-(1H-indol-3-yl)-1-(2-methoxyphenyl)propan-1-one] | 12.4 ± 0.2 µM | 67 to 68 °C | 20.4 ± 0.4 µM | – | – | inactive | – | – | – | –
COc1cccc2c1C(=O)c1c(O)c3c(c(O)c1C2=O)C[C@@](O)(C(=O)CO)C[C@@H]3O[C@H]1C[C@H](N)[C@H](O)[C@H](C)O1 [Doxorubicin, doxorubicin, reference compound] | – | – | – | – | 1.9 ± 0.4 µM | – | 0.79 ± 0.05 µM | 0.9 ± 0.14 µM | 1.9 ± 0.4 µM | 0.9 ± 0.14 µM
